The values that follow come from US20100298252A1, “METHODS AND COMPOSITIONS FOR OPHTHALMIC TREATMENT OF FUNGAL AND BACTERIAL INFECTIONS” (priority 2004, published 2010).

Format in all cases: cell-based
In experiment [1] the test system is Enterococcus faecalis. The experiment can be described thus: MIC and FIC index, microtiter checkerboard / broth dilution. The following applies: Ent. faecalis; for MIC Individually Administered, antibiotic: antibiotic alone. How it is done:
(§1) Agents and Chem. 210-217. (1967) and Sparks et al., Vet. Res. Comm. 18, 241-249 (1994), incorporated herein by reference in their entireties. […] Then 0.05 ml of an 18-hour old culture of a test organism, containing 10^6 colony-forming units (CFU)/ml, was added to each well. Controls for the culture and media were included in each plate. Plates were covered and incubated at 37° Celsius for 18-24 hours. […] To generate isobolograms, FICs of the two test solutions were plotted individually on the x-axis and y-axis to determine the effect of combining the two test solutions on bacterial growth. A line that curves away from, the zero point and the coordinates indicates antagonism. […] A numerical score or fractional inhibitory concentration (FIC) index was determined. The FIC index is equal to the sum of the values of FIC for the individual drugs: […] Am. Soc. Microbiol. Williams and Wilkins, Baltimore 1970), incorporated herein by reference in its entirety. […] Ps. aeruginosa, and Ent. faecalis.
For orientation: Dilution methods test growth across graded concentrations, often in twofold steps.

Experiment [2] deals with Pseudomonas aeruginosa. The experiment is described as above. The conditions noted are these: Ps. aeruginosa; for MIC Individually Administered, antibiotic: antibiotic alone. The method, then:
as §1

The test system of experiment [3] is Staphylococcus aureus. The experiment is described as above. The conditions noted are these: Staph. aureus; for MIC Individually Administered, antibiotic: antibiotic alone. The method, then:
as §1

Experiment [4] concerns Enterococcus faecalis. The experiment can be described thus: Antibiotic resistance profile by disc diffusion. The arrangement: key: R = resistant; I = intermediate; S = sensitive. The following applies: disc diffusion on MHA. How it is done: (§2) The organisms of this study were isolated from human burn patients. They included strains of methicillin resistant Staphylococcus aureus, and vancomycin resistant strains of Pseudomonas aeruginosa and Enterococcus faecalis. The bacterial isolates were propagated in or on Brain Heart Infusion broth (BHI), Mueller-Hinton Broth (MHB), blood agar (BA), Mueller-Hinton agar (MHA), enterococcus agar (EA), or 2× nutrient agar (2×NA).
(§3) Antibiotic resistance profiles were determined by the disc diffusion method on MHA (5).

Experiment [5] concerns Pseudomonas aeruginosa. The experiment can be described thus: Antibiotic resistance profile by disc diffusion. The arrangement: key: R = resistant; I = intermediate; S = sensitive. The conditions noted are these: disc diffusion on MHA. The method, then: as §2, §3
For experiment [6], the system named is Staphylococcus aureus. Kind of experiment: Antibiotic resistance profile by disc diffusion. The arrangement: key: R = resistant; I = intermediate; S = sensitive. The conditions noted are these: disc diffusion on MHA. The method, then: as §2, §3
Background: In agar diffusion tests the substance spreads into inoculated agar from a disc or well.

Experiment [7] relates to Enterococcus faecalis. The experiment can be described thus: Minimal Bactericidal Concentration, broth-dilution microtiter. The source says:
(§4) 307 (pub: Am. Soc. Microbiol. Williams and Wilkins, Baltimore 1970), incorporated herein by reference in its entirety.

For experiment [8], the system named is Pseudomonas aeruginosa. Described as above. The conditions noted are these: Ps. aeruginosa.
Excerpt: as §4

The subject of experiment [9] is Staphylococcus aureus. The experiment is described as above. The conditions noted are these: Staph. aureus.
Excerpt: as §4

Where [10] appears, read: neomycin co-administered with EDTA, 50 mM Tris.

Where “and” joins values, the source holds several entries; their conditions need not be identical. Equal entries are not always repeated.

Regarding `CN(C)[C@@H]1C(O)=C(C(N)=O)C(=O)[C@@]2(O)C(O)=C3C(=O)c4c(O)cccc4[C@@](C)(O)[C@H]3[C@H](O)[C@@H]12` [Oxytetracycline, oxytetracycline], the “MIC Individually Administered, antibiotic” value in the experiment on Enterococcus faecalis [1] was determined as 50 µg/mL; with Pseudomonas aeruginosa [2] it was 3 µg/mL; in the experiment with Staphylococcus aureus [3], 0.1 µg/mL.
Regarding neomycin, the Antibiotic resistance profile entry with Enterococcus faecalis [4], in the experiment with Pseudomonas aeruginosa [5] and with Staphylococcus aureus [6] was “R” throughout. The “MIC Individually Administered, antibiotic” value with Enterococcus faecalis [1] came out at 3130 µg/mL; in the experiment on Pseudomonas aeruginosa [2], 1000 µg/mL; with Staphylococcus aureus [3], 3130 µg/mL. The “MBC Individually Administered” value against Enterococcus faecalis [7] (En. faecalis, neomycin alone, 50 mM Tris) was determined as 25000 µg/mL; with Pseudomonas aeruginosa [8] (neomycin alone, 50 mM Tris), 5000 µg/mL; against Staphylococcus aureus [9] (neomycin alone, 50 mM Tris) it was 3130 µg/mL. The “MBC Co-administered” value worked out at 6250 µg/mL with Enterococcus faecalis [7] (En. faecalis, neomycin co-administered with EDTA, 50 mM Tris); 40 µg/mL with Pseudomonas aeruginosa [8] (setting [10]); 1560 µg/mL in the experiment with Staphylococcus aureus [9] (setting [10]). Also, the “Decrease of MBC value when EDTA and neomycin combined vs individually administered” value was 75% in the experiment with Enterococcus faecalis [7] (Ent. faecalis); 99.2% in the experiment with Pseudomonas aeruginosa [8]; “about 50% and 50%” in the experiment with Staphylococcus aureus [9].
`CC1(C)S[C@@H]2[C@H](NC(=O)[C@H](N)c3ccccc3)C(=O)N2[C@H]1C(=O)O` [Ampicillin, ampicillin]: the Antibiotic resistance profile entry in the experiment with Enterococcus faecalis [4] is on record as “S”; in the experiment on Pseudomonas aeruginosa [5] it was “R”; in the experiment with Staphylococcus aureus [6] it was “R^B”. Further, the “MIC Individually Administered, antibiotic” value with Enterococcus faecalis [1] amounted to 1 µg/mL; with Pseudomonas aeruginosa [2], 490 µg/mL; in the experiment with Staphylococcus aureus [3], 240 µg/mL.
Turning to `O=C(O)CN(CCN(CC(=O)O)CC(=O)O)CC(=O)O` [EDTA, ethylenediamenetetracetic acid], the results for the “MIC Individually Administered, EDTA” value with Enterococcus faecalis [1] (EDTA alone in 50 mM Tris), in the experiment on Pseudomonas aeruginosa [2] (EDTA alone in 50 mM Tris) and with Staphylococcus aureus [3] (EDTA alone in 50 mM Tris) were 15630 µM, 1250 µM and 1000 µM, respectively.
In the case of `O=C(N[C@H](CO)[C@H](O)c1ccc([N+](=O)[O-])cc1)C(Cl)Cl` [Chloramphenicol, chloramphenicol], the Antibiotic resistance profile result in the experiment on Enterococcus faecalis [4] was “R”; in the experiment on Pseudomonas aeruginosa [5] it was “R”; in the experiment on Staphylococcus aureus [6], “I”. In addition, the “MIC Individually Administered, antibiotic” value is 400 µg/mL in the experiment with Enterococcus faecalis [1], 12500 µg/mL with Pseudomonas aeruginosa [2] and 390 µg/mL in the experiment with Staphylococcus aureus [3].
Regarding `Cc1noc(NS(=O)(=O)c2ccc(N)cc2)c1C` [G, sulfisoxazole], the Antibiotic resistance profile result with Enterococcus faecalis [4] was “R”; in the experiment on Pseudomonas aeruginosa [5], “R”; with Staphylococcus aureus [6], “S”.
`CN(C)[C@@H]1C(O)=C(C(N)=O)C(=O)[C@@]2(O)C(O)=C3C(=O)c4c(O)cccc4[C@@](C)(O)[C@H]3C[C@@H]12` [Te, tetracycline]: the values for the Antibiotic resistance profile result with Enterococcus faecalis [4], with Pseudomonas aeruginosa [5] and with Staphylococcus aureus [6] were “R”, “R” and “S”, respectively.
For `NCC[C@H](O)C(=O)N[C@@H]1C[C@H](N)[C@@H](O[C@H]2O[C@H](CN)[C@@H](O)[C@H](O)[C@H]2O)[C@H](O)[C@H]1O[C@H]1O[C@H](CO)[C@@H](O)[C@H](N)[C@H]1O` [Amikacin, amikacin], the “MIC Individually Administered, antibiotic” value with Enterococcus faecalis [1] came out at 2000 µg/mL; in the experiment on Pseudomonas aeruginosa [2], 1 µg/mL; with Staphylococcus aureus [3] it was 120 µg/mL.
